Paper PMC6412019, “Discovery of NV-5138, the first selective Brain mTORC1 activator” (Scientific Reports, 2019)

System: HeLa cells
Experiment: 14C-leucine protein incorporation assay in HeLa cells
Assay type: cell-based, human
Settings: 30 min labeling, CHX 10 ug/ml
Experimental: Since NV-5138 is an amino acid, we performed two different experiments to rule out any potential liabilities that could arise from the incorporation of NV-5138 into proteins. We first determined whether NV-5138 substitutes for any branched-chain amino acid or methionine into newly synthesized proteins using liquid chromatography followed by tandem mass spectroscopy (LC-MS/MS). NV-5138 (100 µM) or vehicle was incubated with serum and leucine-starved 293T cells for 6 hours followed by proteomic analysis by mass spectrometry.
After incubation, cells were harvested and lysed in Tris/HCl 10 mM pH 7.4 plus 1% NP40. Lysate were mixed with water and 20% trichloroacetic acid (1:1:2) and incubated on ice for 2 h to precipitate the protein. Proteins were collected by centrifugation, solubilized in NaOH, placed in scintillation fluid and read on a Wallac Microbeta Trilux 2450 with a 2-min count. Scintillation values were normalized as the percentage of the counts from the DMSO-treated wells.

C[C@@H]1C[C@@H]([C@H](O)CC2CC(=O)NC(=O)C2)C(=O)[C@@H](C)C1 [cyclohexamide, reference compound]
effect on incorporation of 14C-leucine into precipitated proteins: blocked incorporation
